Experimental data as given in article PMC11394712 (Foods, 2024).
In brackets after ≈: the same amount, converted by molar mass.

Legend:
[1] = test system: porcine pancreatic α-amylase and amyloglucosidase (rice starch digestion); assay: In vitro digestion of genistein–starch mixed system (RDS, SDS, RS contents); format: biochemical, porcine; Aspergillus niger
Method: A particular volume of mixed enzyme solution was prepared in which the specific activities of porcine pancreatic α-amylase and amyloglucosidase were 150 U/mL and 15 U/mL, respectively, and kept at 37 °C. […] This mixed system was added to 25 mL of mixed enzyme solution to receive incubation at 37 °C and 160 r/min in a shaking water bath. Aliquots from the reaction solution were removed at 0, 20, and 120 min, followed by being assayed using a glucose assay kit (Megazyme). Below is the calculation equation of the rapidly digestible starch (RDS), slowly digestible starch (SDS), and resistant starch (RS) contents:(1) RDS(%)=(G20−G0)×0.9/TS×100 (2) SDS(%)=(G120−G20)×0.9/TS×100 (3) RS(%)=TS−RDS−SDS/TS×100
In the above equations, G0 represents the content of free glucose within starch; G20 and G120 are the quantities of glucose generated by the mixed enzyme solution after incubation for 20 and 120 min, respectively; TS represents the total starch content in the sample, mg; and 0.9 is the glucose conversion coefficient.

[2] = biological target: T1, α-Amylase from porcine pancreas (Sus scrofa, UniProt P00690); assay: Inhibition rate of α-amylase (glucose assay kit, 510 nm); format: biochemical
T1 construct: purchased Sigma-Aldrich (Shanghai, China); host or cells: porcine pancreas
T1 sequence (P00690 16-511): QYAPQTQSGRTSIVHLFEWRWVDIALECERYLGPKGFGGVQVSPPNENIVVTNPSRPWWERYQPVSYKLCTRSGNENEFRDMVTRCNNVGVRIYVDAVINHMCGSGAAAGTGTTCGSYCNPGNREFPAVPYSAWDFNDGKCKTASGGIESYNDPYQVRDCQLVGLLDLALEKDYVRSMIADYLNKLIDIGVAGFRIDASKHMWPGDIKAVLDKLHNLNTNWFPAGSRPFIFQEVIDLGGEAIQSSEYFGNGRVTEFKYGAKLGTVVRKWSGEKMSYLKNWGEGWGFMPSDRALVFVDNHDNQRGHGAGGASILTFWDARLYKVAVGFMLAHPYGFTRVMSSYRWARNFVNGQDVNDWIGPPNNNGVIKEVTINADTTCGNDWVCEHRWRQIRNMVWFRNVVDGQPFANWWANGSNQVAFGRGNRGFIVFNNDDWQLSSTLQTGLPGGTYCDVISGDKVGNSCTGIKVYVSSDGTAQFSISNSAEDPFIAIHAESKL
Method: For α-amylase, the method of Qin et al. [22] was used with slight modifications (the enzymatic reaction time was different). […] A 5 mL aliquot of the above solution was taken to undergo 10 min of incubation at 37 °C, following by the addition of 5 mL of starch solution (20 mg/mL) that was prepared and kept at 37 °C. Following 15 min of incubation at 37 °C, the reaction solution was removed, and a glucose assay kit was employed for assaying the glucose produced after starch hydrolysis through measuring the changes in the absorbance at 510 nm. […] IC50 was calculated using SPSS 25.0 (IBM) nonlinear regression fitting. (4) Inhibition ratio (%) = 1−ODsample−ODsample blank/ODenzyme solution−ODbuffer solution×100 where ODsample, ODsample blank, and ODenzyme solution represent the absorbance of the solution containing both the sample and the enzyme, the sample solution, and the enzyme solution, respectively. ODbuffer solution is the absorbance of the buffer solution.

[3] = biological target: T1, α-Amylase from porcine pancreas; assay: Reversibility and enzyme inhibition kinetics, α-amylase (Lineweaver–Burk); format: biochemical
Method: The protocol of Dong et al. was followed with minor modifications (the substrate concentration was different). […] The assay mixture received 10 min of incubation at 37 °C. The mixture underwent 15 min of incubation after being added with starch solution (5 mL, 20 mg/mL), followed by the determination of the absorbance change. […] The mixture of the above solution with 2 mL of pNPG solution (25.0 mmol/L) underwent 15 min of incubation, followed by the measurement of its absorbance at 405 nm.
The method in the study of Jiang et al. was modified slightly in this study (the concentration of the inhibitor was different). […] Thereafter, the assay mixture added with 5 mL of 10, 20, 40, 50, and 100 mg/mL of starch solution underwent 15 min of incubation at 37 °C. The assay was performed using a glucose assay kit, together with the identification of the absorbance change at 510 nm.
The assay mix was incubated further for 15 min at 37 °C. The experimenters terminated the reaction by adding 6 mL of sodium carbonate solution (0.2 mol/L). The absorbance change of the solution was monitored colorimetrically at 405 nm. […] The equations below were adopted for calculating Km, KIC, and KIN, which, respectively, represented the Michaelis constant, competitive inhibition constant, and non-competitive inhibition constant, in mg/mL [28].
Lineweaver–Burk:(5) 1/V=Km/Vmax⋅1/[S]+1/Vmax

[4] = biological target: T1, α-Amylase from porcine pancreas; assay: Fluorescence quenching, binding and thermodynamic analysis, α-amylase; conditions: for Kd: KD dissociation constant; for Kd / KQ static quenching constant / n binding sites / ΔG free energy change / ΔH enthalpy change / ΔS entropy change / KA apparent quenching rate constant: α-amylase
Method: For fluorescence spectroscopic studies, we followed the protocol in the study of Yu et al.. […] Fluorescence quenching parameters were calculated using the following equations:(8) Fa=Fm⋅e^(Aex+Aem)/2 where Fm denotes the measured fluorescence data; Fa represents the adjusted fluorescence data; and Aex and Aem denote the absorbance at the excitation and emission wavelengths, respectively.
Stern–Volmer dynamic impact quenching equation:(9) F0/F=1+KAτ0[Q]
Binding and thermodynamic analyses were used for elucidating the mechanisms of enzyme inhibition, including the inhibition of fluorophores by quenchers. […] (13) lg(F0−F/F)=lgKC+nlg[Q] where F0, F, and [Q] are identical to those in Equation (9). KC is the binding constant (L/mol), and n denotes the average number of binding sites. (14) lnKQ2/KQ1=ΔH/R(1/T1−1/T2) (15) ΔG=−RTlnK=ΔH−TΔS

α-amylase = conditions: ref 39 (Zheng et al.); cited from earlier work
α-glucosidase = conditions: ref 39 (Zheng et al.); cited from earlier work
[5] = addition of genistein (0.4 mg/mL, 10%) vs starch alone
[6] = genistein 0.4 mg/mL (10.0 mg per 100 mg rice starch), 37 °C

## O=c1c(-c2ccc(O)cc2)coc2cc(O)cc(O)c12 [genistein, Genistein]
[1]; [5]
  increase of RS content: 7.18%
  increase of SDS content: 30.34%
  reduction of RDS content in starch: 37.52%
[1]; [6]
  RDS content of the mixed system: 20.63%
  RS content of the mixed system: 9.14%
  SDS content of the mixed system: 70.23%
[2]
  IC50: 2550 µM
[3]; genistein 0, 1, 2 mg/mL
  type of inhibition of α-amylase: reversible and non-competitive
[3]; read-out: KIN (non-competitive inhibition constant), α-amylase (converted)
  Ki: 50500 µM
[4]; 25, 31, 37 °C
  type of fluorescence quenching of α-amylase: static quenching
[4]; 25 °C
  Kd: 760 µM
  KQ static quenching constant: 540 L/mol
  n binding sites: 1.19
  ΔG free energy change: -3.415 kcal/mol
  ΔH enthalpy change: -0.11 kcal/mol
  ΔS entropy change: 50.65 J·mol^−1·K^−1
[4]; 31 °C
  Kd: 170 µM
  KA apparent quenching rate constant: 5.32e+11 M⁻¹ s⁻¹
  KQ static quenching constant: 530 L/mol
  n binding sites: 0.97
  ΔG free energy change: -3.717 kcal/mol
  ΔH enthalpy change: -1.44 kcal/mol
  ΔS entropy change: 31.97 J·mol^−1·K^−1
[4]; 37 °C
  Kd: 110 µM
  KA apparent quenching rate constant: 4.84e+11 M⁻¹ s⁻¹
  KQ static quenching constant: 480 L/mol
  n binding sites: 0.77
  ΔG free energy change: -3.81 kcal/mol
  ΔH enthalpy change: -0.504 kcal/mol
  ΔS entropy change: 44.59 J·mol^−1·K^−1

## COc1cc(/C=C/C(=O)O)ccc1O [ferulic acid]
α-amylase
  IC50 α-amylase: 622 µg/mL (≈ 3.2 mM)
α-glucosidase
  IC50 α-glucosidase: 866 µg/mL (≈ 4.46 mM)
